The record followed here is US20200155503A1, “COMPOSITIONS FOR USE FOR TREATING CUTANEOUS LEISHMANIASIS” (BIONOOX SA, priority 2017, published 2020).

One series deals with Neutrophil. The series can be described thus: Neutrophil cell viability by flow cytometry with DAPI staining. Format: cell-based. The protocol: Neutrophil cell viability was assessed by flow cytometry with DAPI staining pas 24 hours incubation with dihydroquercetin (5, 15 and 25 μM), 3-(2-chloroacetamido) ethyl benzoate (1, 2 and 4 μM) and bisabolol (0.05, 0.1 and 0.5% w/v).

The next series relates to Leishmania major mCherry. The series is described as follows: Parasite killing in bone marrow-derived macrophages infected with Leishmania major mCherry (flow cytometry, microscopy). Format: cell-based. To be noted: for macrophage mediated parasite killing: BMDM infected with L. major mCherry, compounds tested individually. The protocol: The direct microbicidal effect of compounds against the Leishmania parasites in infected macrophages and neutrophils was evaluated.
Bone marrow-derived macrophages (BMDM) were cultured for 7 days, harvested and infected with Leishmania major mCherry for 2 hrs. Then the non-phagocytosed parasites were washed and dihydroquercetin, 3-(2-chloroacetamido) ethyl benzoate or bisabolol were added at different concentrations and incubated at different time points. • Parasites killing was evaluated by flow cytometry and microscopy. • NO production was assessed by Griess reaction from the supernatants.
(A flow cytometer gives signals particle by particle.)

A further series concerns Leishmania parasites. The series can be described thus: Individual evaluation against Leishmania parasites. To be noted: evaluated individually.
Series [1] deals with Neutrophils infected with L. major mCherry. The series can be described thus: ROS production by neutrophils infected with L. major mCherry (Luminol). The format is cell-based. To be noted: MOI 1:10, Luminol for 90 min. The protocol:
Neutrophils were isolated by Magnetic-activated cell sorting (MACS) and infected with L. major mCherry at a multiplicity of infection ratio (MOI) of 1:10.
Dihydroquercetin, […] ethyl benzoate or bisabolol at different concentrations were added and stimulated for 24 hours.
Kinetic of ROS production was measured by Luminol for 90 min.

Read-outs that look alike come from different tables or passages of the source.

Regarding `CC(C)=CCCC(C)(O)C1CC=C(C)CC1` (stereo not shown) [bisabolol, 6-methyl-2-(4-methyl-3-cyclohexen-1-yl)-5-hepten-2-ol], in the series on Neutrophil, the “cytotoxicity (neutrophil cell viability)” value is on record as “no cytotoxicity”. In addition, the “macrophage mediated parasite killing” value in the series on Leishmania major mCherry was “no impact on macrophage mediated parasite killing”. Besides, the “effect against Leishmania parasites” value in the series on Leishmania parasites was “no or limited effect”.

Turning to `CCOC(=O)c1cccc(NC(=O)CCl)c1` [3-(2-chloroacetamido) ethyl benzoate], the ROS production result in series [1] is recorded as “decrease in ROS production”. In the series on Neutrophil (24 hours incubation, 1, 2 and 4 μM), the neutrophil viability entry is recorded as “induced a reduction in neutrophil viability”. Besides, in the series with Leishmania major mCherry (infected macrophages and neutrophils, different concentrations), the “direct microbicidal effect against L. major” value was “had a direct microbicidal effect against L. major”.

`O=C1c2c(O)cc(O)cc2OC(c2ccc(O)c(O)c2)C1O` (stereo not shown) [Dihydroquercetin]: the “cytotoxicity (neutrophil cell viability)” value with Neutrophil (24 hours incubation, 5, 15 and 25 μM) is “no cytotoxicity”. Also, in the series with Leishmania major mCherry, the “macrophage mediated parasite killing” value is on record as “no impact on macrophage mediated parasite killing”. Further, the “effect against Leishmania parasites” value in the series on Leishmania parasites is given as “no or limited effect”.

`Cc1c(C)c2c(c(C)c1O)CC[C@@](C)(CCC[C@H](C)CCC[C@H](C)CCCC(C)C)O2` [alpha-tocopherol, (2R)-2,5,7,8-Tetramethyl-2-[(4R,8R)-(4,8,12-trimethyltridecyl)]-6-chromanol]: the “effect against Leishmania parasites” value in the series with Leishmania parasites is recorded as “no or limited effect”.
